One block for each compound: values may come before it.
Legend:
[1] = test system: cycloisomaltotetraose-forming enzyme from Agreia sp. D1110 (NITE BP-02815); assay: Substrate specificity of cycloisomaltotetraose-forming enzyme (TLC of reaction mixtures); assay type: biochemical; conditions: substrate 1% (w/v), 20 units/g-solid of enzyme, pH 6.0, 40°C, 24 hours; also: key: - : Not formed; + : Slightly formed; ++ : Formed; +++ : Significantly formed
From the text: Substrate specificity of cycloisomaltotetraose-forming enzyme was investigated using various saccharides as substrates. Aqueous solutions containing D-glucose, maltose, isomaltose, panose, isomaltotriose, isomaltotetraose, isomaltopentaose, isomaltohexaose, isomaltoheptaose, dextran T10 (average molecular weight: 10,000, commercialized by Pharmacosmos A/s., Denmark), dextran T70 (average molecular weight: 70,000, commercialized by Pharmacosmos A/s., Denmark), or dextran T2000 (average molecular weight: 2,000,000, commercialized by Pharmacosmos A/s., Denmark) were prepared as substrate solutions. To each substrate solution, acetate buffer and calcium chloride were added to give final concentrations of 50 mM and 1 mM, respectively, and then resulting solutions were admixed with 20 units/g-solid of cycloisomaltotetraose-forming enzyme from Agreia sp. […] To examine the saccharides in each reaction mixture before and after the reaction, saccharides were separated by silica gel thin-layer chromatography (hereinafter, abbreviated as "TLC") using "[…] 60F254", a TLC aluminum plate (10 x 20 cm) and a solvent (2-propanol/1-butanol/water, volume ratio of 12:3:4) with two-times ascending method. The separated saccharides on the plate were detected by visualizing the spots with sulfate-methanol method, and the degree of forming cycloisomaltotetraose from each substrate and the products other than cycloisomaltotetraose were investigated.

[2] = test system: cycloisomaltotetraose-forming enzyme from Agreia sp. D1110 (NITE BP-02815); assay: Action of cycloisomaltotetraose-forming enzyme on isomaltopentaose (TLC); assay type: biochemical; conditions: 1% (w/v) isomaltopentaose, 2.0 units/g-isomaltopentaose, pH 6.0, 40°C, 24 hours
Protocol: As a part of examining the substrate specificity of cycloisomaltotetraose-forming enzyme, the action of the enzyme on isomaltopentaose was investigated. To 0.5 mL of 50 mM acetate buffer (pH 6.0) containing 1% (w/v) of isomaltopentaose (prepared in Hayashibara Co., Ltd., Okayama, Japan, purity: 98.1% by weight) and 0.006% (w/v) hinokitiol as a preservative, 2.0 units/g-isomaltopentaose of a purified cycloisomaltotetraose-forming enzyme from Agreia sp. D1110 (NITE BP-02815), obtained by the method in Experiment 6, was added, and the resulting mixture was incubated at 40°C for 24 hours and then heated at 100°C for 10 min to inactivate the enzyme. To examine the reaction products in the reaction mixture, saccharides were separated by TLC using "KIESELGEL 60", a TLC aluminum plate (10 x 20 cm) and a solvent (acetonitrile/water/ethyl acetate/1-propanol, volume ratio of 85:70:20:50) and two-times ascending method. The separated saccharides on the plate were detected by visualizing the spots with sulfate-methanol method, and the reaction products formed from isomaltopentaose were investigated.

[3] = Digestivity test using small intestinal mucosal enzyme; assay type: in vitro ADME; conditions: rat, small intestine mucosal enzyme, 1% by weight, pH 6.0, 50 units/g-cycloisomaltotetraose, 37°C, read-out: residual rate (%) of cycloisomaltotetraose after the enzymatic reaction
Protocol: To the substrate solution, 50 units/g-cycloisomaltotetraose, as maltose-hydrolyzing activity, of small intestine mucosal enzyme (α-glucosidase) prepared from rat small intestine acetone powder, commercialized by Sigma-Aldrich Co., was added, and the resulting mixture was incubated at 37°C for 24 hours and then heated at 100°C for 10 min to inactivate the enzyme. The amounts of cycloisomaltotetraose in the solution before and after the reaction were determined by HPLC, and the residual rate (%) of cycloisomaltotetraose after the enzymatic reaction, i.e., (the amount after the reaction/the amount before the reaction) x 100, was measured.

[4] = Thermal stability of cycloisomaltotetraose in aqueous solution; assay type: physicochemical; conditions: 7% (w/v) aqueous solution, 120°C
Protocol: An aqueous cycloisomaltotetraose solution with a solid concentration of 7% (w/v) was prepared by dissolving the crystalline cycloisomaltotetraose preparation with a purity of 99.5% by weight, obtained in Experiment 3-1. Eight milliliters each of the aqueous solution was taken in a glass centrifuge tube with a screw cap, sealed, and then heated for 30 to 90 min at 120°C. The solutions before heating and those after heating for various times were subjected to the measurement for the degree of coloring and for the cycloisomaltotetraose purity by HPLC method. The degree of coloring was defined as the absorbance at 480 nm measured by using a 1-cm cell.

[5] = pH stability of cycloisomaltotetraose; assay type: physicochemical; conditions: 4% (w/v), 100°C; for Degree of coloring (A480nm): 24 hours; for remaining at 24 h: read-out: Purity of cycloisomaltotetraose (% by weight)
Protocol: The crystalline cycloisomaltotetraose preparation obtained in Experiment 3-1 was dissolved in various buffers to make 7 kinds of aqueous cycloisomaltotetraose solutions with a cycloisomaltotetraose concentration of 4% (w/v), and with the pH adjusted to 3 to 9. Eight milliliters each of the aqueous solution was taken into a glass centrifuge tube with a screw cap, sealed, and heated at 100°C for 24 hours. After cooling them, the measurement for the degree of coloring degree of those aqueous solution and for the cycloisomaltotetraose purity were carried out in the same manner in Experiment 16.

[6] = target: T1, α-glucosidase (Aspergillus niger, UniProt P56526); assay: Preliminary test: hydrolysis by α-glucosidase; assay type: biochemical; conditions: preliminary test using a small amount of the reaction product
T1 construct: purchased Amano Enzyme Co., Ltd. TRANSGLUCOSIDASE L Amano
Protocol: (§1) The enzymatic reaction product containing Unknown Saccharide I, obtained in Experiment 1-2, was adjusted to pH 5.0, admixed with 100 U/g-solid of "TRANSGLUCOSIDASE L Amano", α-glucosidase produced by Amano Enzyme Co., Ltd., and 1,000 U/g-solid of glucoamylase commercialized by Nagase ChemteX Co., Ltd., and then reacted at 50°C for 4 days. After the reaction, the reaction was stopped by heating the reaction mixture at about 100°C for 10 min. The saccharides in the resulting reaction mixture were analyzed by analytical high-performance liquid chromatography (hereinafter, abbreviated as "analytical HPLC"). As a result, D-glucose and Unknown Saccharide I were detected at elution times of 58.7 min and 49.4 min, respectively. The saccharide composition of the reaction mixture is 30.0% (w/w) of D-glucose, 65.5% (w/w) of Unknown Saccharide I, and 4.5% (w/w) of partial dextran hydrolysates containing isomaltooligosaccharides.

[7] = test system: glucoamylase; assay: Preliminary test: hydrolysis by glucoamylase; assay type: biochemical; conditions: preliminary test using a small amount of the reaction product
Protocol: as §1

[8] = Preliminary test: alkaline treatment; assay type: physicochemical; conditions: preliminary test using a small amount of the reaction product

T1 sequence (P56526 26-985): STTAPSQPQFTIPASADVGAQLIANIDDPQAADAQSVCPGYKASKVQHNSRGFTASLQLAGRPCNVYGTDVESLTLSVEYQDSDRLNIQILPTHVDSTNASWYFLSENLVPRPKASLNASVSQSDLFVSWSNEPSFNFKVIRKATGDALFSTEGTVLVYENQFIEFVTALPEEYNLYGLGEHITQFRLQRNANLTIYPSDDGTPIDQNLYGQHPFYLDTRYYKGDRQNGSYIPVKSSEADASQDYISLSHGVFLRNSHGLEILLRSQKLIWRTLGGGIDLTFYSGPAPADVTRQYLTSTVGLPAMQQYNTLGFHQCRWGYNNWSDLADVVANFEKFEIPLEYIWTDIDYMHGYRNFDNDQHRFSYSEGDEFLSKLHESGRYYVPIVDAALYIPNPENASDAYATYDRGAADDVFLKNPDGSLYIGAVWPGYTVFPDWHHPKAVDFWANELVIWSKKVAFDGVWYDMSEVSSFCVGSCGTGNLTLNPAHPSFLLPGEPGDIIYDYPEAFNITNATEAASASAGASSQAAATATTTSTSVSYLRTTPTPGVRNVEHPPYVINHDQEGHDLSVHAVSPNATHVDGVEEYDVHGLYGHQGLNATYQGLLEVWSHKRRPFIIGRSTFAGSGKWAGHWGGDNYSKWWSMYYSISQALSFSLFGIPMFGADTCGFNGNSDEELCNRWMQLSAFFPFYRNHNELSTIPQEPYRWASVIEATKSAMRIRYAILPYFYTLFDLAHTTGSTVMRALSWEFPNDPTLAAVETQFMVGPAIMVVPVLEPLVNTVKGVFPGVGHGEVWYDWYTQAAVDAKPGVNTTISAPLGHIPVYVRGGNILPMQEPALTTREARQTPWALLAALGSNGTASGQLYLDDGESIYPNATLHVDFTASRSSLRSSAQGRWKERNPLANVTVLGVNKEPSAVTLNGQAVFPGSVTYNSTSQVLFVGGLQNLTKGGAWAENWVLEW

- Formation of cycloisomaltotetraose [1]: -
SMILES: OC[C@H]1O[C@H](OC[C@H]2O[C@H](OC[C@H]3OC(O)[C@H](O)[C@@H](O)[C@@H]3O)[C@H](O)[C@@H](O)[C@@H]2O)[C@H](O)[C@@H](O)[C@@H]1O (stereo partly drawn) [Isomaltotriose, isomaltotriose]

- Formation of cycloisomaltotetraose [1]: +
SMILES: OC[C@H]1O[C@H](OC[C@H]2O[C@H](OC[C@H]3O[C@H](OC[C@H]4OC(O)[C@H](O)[C@@H](O)[C@@H]4O)[C@H](O)[C@@H](O)[C@@H]3O)[C@H](O)[C@@H](O)[C@@H]2O)[C@H](O)[C@@H](O)[C@@H]1O (stereo partly drawn) [Isomaltotetraose, isomaltotetraose]

- Formation of cycloisomaltotetraose [1]: -
SMILES: OC[C@H]1O[C@H](OC[C@H]2OC(O)[C@H](O)[C@@H](O)[C@@H]2O)[C@H](O)[C@@H](O)[C@@H]1O (stereo partly drawn) [Isomaltose, isomaltose]

- Formation of cycloisomaltotetraose [1]: ++
SMILES: OC[C@H]1O[C@H](OC[C@H]2O[C@H](OC[C@H]3O[C@H](OC[C@H]4O[C@H](OC[C@H]5OC(O)[C@H](O)[C@@H](O)[C@@H]5O)[C@H](O)[C@@H](O)[C@@H]4O)[C@H](O)[C@@H](O)[C@@H]3O)[C@H](O)[C@@H](O)[C@@H]2O)[C@H](O)[C@@H](O)[C@@H]1O (stereo partly drawn) [Isomaltopentaose, isomaltopentaose]
- reaction products formed from isomaltopentaose [2]: produces cycloisomaltotetraose with isomaltotetraose, also slightly isomaltotriose, isomaltose, glucose and high molecular glucans

- Formation of cycloisomaltotetraose [1]: -
SMILES: OC[C@H]1OC(O)[C@H](O)[C@@H](O)[C@@H]1O (stereo partly drawn) [D-Glucose, D-glucose]

- Formation of cycloisomaltotetraose [1]: +++
SMILES: OC[C@H]1O[C@H](OC[C@H]2O[C@H](OC[C@H]3O[C@H](OC[C@H]4O[C@H](OC[C@H]5O[C@H](OC[C@H]6O[C@H](OC[C@H]7OC(O)[C@H](O)[C@@H](O)[C@@H]7O)[C@H](O)[C@@H](O)[C@@H]6O)[C@H](O)[C@@H](O)[C@@H]5O)[C@H](O)[C@@H](O)[C@@H]4O)[C@H](O)[C@@H](O)[C@@H]3O)[C@H](O)[C@@H](O)[C@@H]2O)[C@H](O)[C@@H](O)[C@@H]1O (stereo partly drawn) [Isomaltoheptaose, isomaltoheptaose]

- Formation of cycloisomaltotetraose [1]: +++
SMILES: OC[C@H]1O[C@H](OC[C@H]2O[C@H](OC[C@H]3O[C@H](OC[C@H]4O[C@H](OC[C@H]5O[C@H](OC[C@H]6OC(O)[C@H](O)[C@@H](O)[C@@H]6O)[C@H](O)[C@@H](O)[C@@H]5O)[C@H](O)[C@@H](O)[C@@H]4O)[C@H](O)[C@@H](O)[C@@H]3O)[C@H](O)[C@@H](O)[C@@H]2O)[C@H](O)[C@@H](O)[C@@H]1O (stereo partly drawn) [Isomaltohexaose, isomaltohexaose]

SMILES: OC[C@H]1O[C@H](O[C@H]2[C@H](O)[C@@H](O)C(O)O[C@@H]2CO)[C@H](O)[C@@H](O)[C@@H]1O (mixture of isomers) [Maltose, maltose]
- Formation of cycloisomaltotetraose [1]: -

SMILES: O[C@@H]1[C@@H](O)[C@H]2OC[C@H]3O[C@H](OC[C@H]4O[C@H](OC[C@H]5O[C@H](OC[C@@H](O2)[C@H]1O)[C@H](O)[C@@H](O)[C@@H]5O)[C@H](O)[C@@H](O)[C@@H]4O)[C@H](O)[C@@H](O)[C@@H]3O [cycloisomaltotetraose, cyclo{→6)-α-D-glucopyranosyl-(1→6)-α-D-glucopyranosyl-(1→6)-α-D-glucopyranosyl-(1→6)-α-D-glucopyranosyl-(1→}]
- remaining at 24 h [3]: 91.6%
- Degree of coloring (A480nm) ([4]; heating time 0 min): 0.000 A480nm
- Purity of cycloisomaltotetraose (% by weight) ([4]; heating time 0 min): 99.5 % by weight
- Degree of coloring (A480nm) ([4]; heating time 30 min): 0.000 A480nm
- Degree of coloring (A480nm) ([4]; heating time 60 min): 0.000 A480nm
- Degree of coloring (A480nm) ([4]; heating time 90 min): 0.000 A480nm
- remaining at 0.5 h ([4]; water, heating time 30 min, read-out: Purity of cycloisomaltotetraose (% by weight)): 99.5%
- remaining at 1 h ([4]; water, heating time 60 min, read-out: Purity of cycloisomaltotetraose (% by weight)): 99.5%
- remaining at 1.5 h ([4]; water, heating time 90 min, read-out: Purity of cycloisomaltotetraose (% by weight)): 99.5%
- Degree of coloring (A480nm) ([5]; pH 3, Acetate buffer): 0.000 A480nm
- remaining at 24 h ([5]; pH 3, Acetate buffer): 93.5%
- Degree of coloring (A480nm) ([5]; pH 4, Acetate buffer): 0.000 A480nm
- remaining at 24 h ([5]; pH 4, Acetate buffer): 99.4%
- Degree of coloring (A480nm) ([5]; pH 5, Acetate buffer): 0.000 A480nm
- remaining at 24 h ([5]; pH 5, Acetate buffer): 99.4%
- Degree of coloring (A480nm) ([5]; pH 6, Tris-HCl buffer): 0.000 A480nm
- remaining at 24 h ([5]; pH 6, Tris-HCl buffer): 99.4%
- Degree of coloring (A480nm) ([5]; pH 7, Tris-HCl buffer): 0.000 A480nm
- remaining at 24 h ([5]; pH 7, Tris-HCl buffer): 99.5%
- Degree of coloring (A480nm) ([5]; pH 8, Tris-HCl buffer): 0.001 A480nm
- remaining at 24 h ([5]; pH 8, Tris-HCl buffer): 99.5%
- Degree of coloring (A480nm) ([5]; pH 9, Ammonium buffer): 0.000 A480nm
- remaining at 24 h ([5]; pH 9, Ammonium buffer): 99.4%
- hydrolysis by α-glucosidase [6]: not hydrolyzed
- hydrolysis by glucoamylase [7]: not hydrolyzed
- decomposition by alkaline treatment [8]: not decomposed

- Formation of cycloisomaltotetraose [1]: -
SMILES: OCC1OC(OCC2OC(OC3C(CO)OC(O)C(O)C3O)C(O)C(O)C2O)C(O)C(O)C1O (stereo not drawn) [Panose, panose]

From patent EP3895711A1, “CYCLOISOMALTOTETRAOSE, CYCLOISOMALTOTETRAOSE PRODUCTION ENZYME, AND PRODUCTION METHODS AND USES THEREOF” (Hayashibara Co., Ltd., priority 2018, dated 2020)
